Measurements from PubChem BioAssay AID328 (DTP/NCI, 2004).
Where “and” joins values, the source holds several entries; their conditions need not be identical. Equal values may be shown once. Inconclusive results and toxic doses are left out. How the source made its calls: active means survival T/C of 150% or more; inactive means T/C below 125% in these data.

System: BDF1 mice, P388 leukemia ip, median survival T/C
Assay: NCI In Vivo Anticancer Drug Screen. Data for tumor model P388 Leukemia (intraperitoneal) in B6D2F1 (BDF1) mice
Details: endpoint: median survival time, higher = longer survival
Method in brief: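 T/C = treated-group survival ÷ vehicle-control survival; tumour transplanted into mice before dosing.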

[1] = dose: 10.0 mg/kg/injection, schedule: Q01DX009 (ip), vehicle: saline
[2] = dose: 50.0 mg/kg/injection, schedule: Q01DX010 (ip), vehicle: saline
[3] = dose: 200.0 mg/kg/injection, schedule: Q04DX003 (ip), vehicle: saline with Tween-80
[4] = dose: 100.0 mg/kg/injection, schedule: Q04DX003 (ip), vehicle: saline with Tween-80
[5] = dose: 400.0 mg/kg/injection, schedule: Q04DX003 (ip), vehicle: saline with Tween-80
[6] = dose: 50.0 mg/kg/injection, schedule: Q04DX003 (ip), vehicle: saline

Measured: T/C

COC(=O)CC1CCN(C(=O)OCc2ccccc2)C(Cc2c[nH]c3ccccc23)C1=O (stereo unspecified)
inactive: dose: 2.0 mg/kg/injection, schedule: Q01DX009 (ip), vehicle: saline 105 % of control | dose: 3.0 mg/kg/injection, schedule: Q01DX009 (ip), vehicle: saline 109 % of control | dose: 4.0 mg/kg/injection, schedule: Q01DX009 (ip), vehicle: saline 114 % of control | dose: 8.0 mg/kg/injection, schedule: Q01DX009 (ip), vehicle: saline 98 % of control | [1] 109 % of control | dose: 16.0 mg/kg/injection, schedule: Q01DX009 (ip), vehicle: saline 102 % of control | dose: 30.0 mg/kg/injection, schedule: Q01DX009 (ip), vehicle: saline 104 % of control | dose: 32.0 mg/kg/injection, schedule: Q01DX009 (ip), vehicle: saline 95 % of control | dose: 60.0 mg/kg/injection, schedule: Q01DX009 (ip), vehicle: saline 109 % of control

CC(CN(C)C)C(=O)/C=C/c1ccccc1 (stereo unspecified)
inactive: dose: 18.75 mg/kg/injection, schedule: Q01DX009 (ip), vehicle: saline 100 % of control | dose: 37.5 mg/kg/injection, schedule: Q01DX009 (ip), vehicle: saline 109 % of control | dose: 75.0 mg/kg/injection, schedule: Q01DX009 (ip), vehicle: saline 109 % of control

CSc1ccc(NC(=O)NNP(=S)(Oc2ccc(C(C)(C)C)cc2)Oc2ccc(C(C)(C)C)cc2)cc1
inactive: dose: 50.0 mg/kg/injection, schedule: Q01DX005 (ip), vehicle: saline with Tween-80 96 % of control | dose: 100.0 mg/kg/injection, schedule: Q01DX005 (ip), vehicle: saline with Tween-80 96 % of control

C1=CC(=P(c2ccccc2)(c2ccccc2)c2ccccc2)C=C1
inactive: [2] 100 % of control | dose: 100.0 mg/kg/injection, schedule: Q01DX010 (ip), vehicle: saline 100 % of control | dose: 200.0 mg/kg/injection, schedule: Q01DX010 (ip), vehicle: saline 100 % of control | dose: 400.0 mg/kg/injection, schedule: Q01DX010 (ip), vehicle: saline 100 % of control

C[C@]12CC[C@H](O)CC1=CC[C@@H]1[C@@H]2CC[C@]2(C)c3nc4ccccc4cc3C[C@@H]12
inactive: [3] 95 % of control

CCOC(=O)CCC(C)(C#N)c1ccccc1 (stereo unspecified)
inactive: dose: 50.0 mg/kg/injection, schedule: Q01DX009 (ip), vehicle: saline with Tween-80 100 % of control | [4] 95 % of control | [3] 91 % of control | [5] 100 % of control

COC1=C(OC)C(=O)C(C/C=C(\C)CC/C=C(\C)CC/C=C(\C)CC/C=C(\C)CC/C=C(\C)CC/C=C(\C)CC/C=C(\C)CC/C=C(\C)CCC=C(C)C)=C(C)C1=O
inactive: dose: 5.0 mg/kg/injection, schedule: Q01DX025 (ip), vehicle: saline with Tween-80 109 % of control | dose: 10.0 mg/kg/injection, schedule: Q01DX025 (ip), vehicle: saline with Tween-80 106 % of control | dose: 20.0 mg/kg/injection, schedule: Q01DX025 (ip), vehicle: saline with Tween-80 104 % of control | dose: 40.0 mg/kg/injection, schedule: Q01DX025 (ip), vehicle: saline with Tween-80 98 % of control

Cc1cc(O)c2c(c1)C(=O)C(c1c(C)cc3c(c1O)C(=O)C=CC3=O)=CC2=O
inactive: dose: 1.25 mg/kg/injection, schedule: Q01DX009 (ip), vehicle: saline 89 % of control | dose: 2.5 mg/kg/injection, schedule: Q01DX009 (ip), vehicle: saline 114 % of control | dose: 5.0 mg/kg/injection, schedule: Q01DX009 (ip), vehicle: saline 102 % of control | [1] 105 % of control and 116 % of control | dose: 14.0 mg/kg/injection, schedule: Q01DX009 (ip), vehicle: saline 106 % of control | dose: 22.0 mg/kg/injection, schedule: Q01DX009 (ip), vehicle: saline 116 % of control | dose: 35.0 mg/kg/injection, schedule: Q01DX009 (ip), vehicle: saline 99 % of control

NC(N)=N/N=C/c1cccc2ccccc12
inactive: dose: 6.25 mg/kg/injection, schedule: Q01DX009 (ip), vehicle: saline with Tween-80 100 % of control | dose: 12.5 mg/kg/injection, schedule: Q01DX009 (ip), vehicle: saline with Tween-80 108 % of control | dose: 25.0 mg/kg/injection, schedule: Q01DX009 (ip), vehicle: saline with Tween-80 108 % of control

C=C(C)C(=O)/C(=C/C(=O)O)OC
inactive: dose: 12.5 mg/kg/injection, schedule: Q01DX010 (ip), vehicle: saline 113 % of control | dose: 25.0 mg/kg/injection, schedule: Q01DX010 (ip), vehicle: saline 109 % of control | [2] 118 % of control

Oc1ccccc1/C=N\c1nccs1
inactive: dose: 25.0 mg/kg/injection, schedule: Q01DX009 (ip), vehicle: Klucel (hydroxypropylcellulose) (HPC) 111 % of control | dose: 50.0 mg/kg/injection, schedule: Q01DX009 (ip), vehicle: Klucel (hydroxypropylcellulose) (HPC) 96 % of control and 109 % of control | dose: 100.0 mg/kg/injection, schedule: Q01DX009 (ip), vehicle: Klucel (hydroxypropylcellulose) (HPC) 96 % of control and 118 % of control | dose: 200.0 mg/kg/injection, schedule: Q01DX009 (ip), vehicle: Klucel (hydroxypropylcellulose) (HPC) 122 % of control and 123 % of control

C[C@]12C[C@@H](F)C(=O)C[C@@H]1CC[C@@H]1[C@@H]2CC[C@]2(C)[C@@H](O)CC[C@@H]12
inactive: dose: 100.0 mg/kg/injection, schedule: Q01DX009 (ip), vehicle: saline with Tween-80 95 % of control | [4] 110 % of control | dose: 200.0 mg/kg/injection, schedule: Q01DX009 (ip), vehicle: saline with Tween-80 95 % of control | [3] 100 % of control | dose: 400.0 mg/kg/injection, schedule: Q01DX009 (ip), vehicle: saline with Tween-80 100 % of control | [5] 105 % of control

Clc1ccc(OCc2sc3ccc(Cl)cc3c2CN2CCCCC2)cc1
inactive: dose: 25.0 mg/kg/injection, schedule: Q04DX003 (ip), vehicle: saline with Tween-80 100 % of control | dose: 50.0 mg/kg/injection, schedule: Q04DX003 (ip), vehicle: saline with Tween-80 90 % of control | [4] 90 % of control

COc1ccc2cc(OC)ccc2c1
inactive: dose: 100.0 mg/kg/injection, schedule: Q01DX001 (ip), vehicle: saline sonified 100 % of control | dose: 200.0 mg/kg/injection, schedule: Q01DX001 (ip), vehicle: saline sonified 100 % of control | dose: 400.0 mg/kg/injection, schedule: Q01DX001 (ip), vehicle: saline sonified 100 % of control

CC#CCOCC1CN(C)C(=O)O1 (stereo unspecified)
inactive: dose: 25.0 mg/kg/injection, schedule: Q01DX009 (ip), vehicle: saline 95 % of control | dose: 50.0 mg/kg/injection, schedule: Q01DX009 (ip), vehicle: saline 100 % of control | [6] 100 % of control | dose: 100.0 mg/kg/injection, schedule: Q01DX009 (ip), vehicle: saline 109 % of control | dose: 200.0 mg/kg/injection, schedule: Q01DX009 (ip), vehicle: saline 95 % of control | dose: 200.0 mg/kg/injection, schedule: Q04DX003 (ip), vehicle: saline 91 % of control | dose: 400.0 mg/kg/injection, schedule: Q04DX003 (ip), vehicle: saline 87 % of control

N#Cc1cnn(C(N)=S)c1N
inactive: dose: 25.0 mg/kg/injection, schedule: Q04DX003 (ip), vehicle: saline 104 % of control | [6] 104 % of control | dose: 100.0 mg/kg/injection, schedule: Q04DX003 (ip), vehicle: saline 100 % of control
